Reference: US9562272B2, “Screening method for therapeutic agent for chondropathy and modified chondrocyte for treatment of chondropathy” (KYOTO UNIVERSITY, priority 2011, dated 2017)

Target: T1, SIK3 (Homo sapiens, UniProt Q9Y2K2)
T1 construct: expressed in transfected cells; host or cells: HEK293
Test: GAL4-Luc/TORC2 dual-luciferase reporter screening system for SIK3 activity in HEK293 cells
Type: cell-based
Settings: HEK293 cells transfected with pM-TORC2 and pTarget-SIK3; test substance added 24 h later, treated for 6 hours; DMSO control
Protocol: Into HEK293 cells, a reporter vector GAL4-Luc (firefly luciferase: pTAL-5XGAL4 (150 ng)), an endogenous reporter vector (Renilla luciferase: pRL-Int (−) (30 ng)), a vector with or without the expression of TORC (pM-TORC2 or pM only (50 ng)) and a vector with or without the expression of SIK3 (pTarget-SIK3 or pTarget only (50 ng)) were introduced using Lipofectamine 2000. Twenty-four hours later, a test substance was added and the cells were further treated for 6 hours. The measurement of the reporter activity was performed using Dual-Luciferase assay kit made by Promega. As the test substance, staurosporine (STS) or a SIK2 inhibitor (Compound C) was used. As a control, DMSO alone was added.
In FIG. 7, the vertical axis represents the activity of TORC2, which is the activity of pM-TORC2 that was calculated by dividing the firefly luciferase activity by the Renilla luciferase activity and is expressed as a multiple of the activity of pM. The white bars and the black bars represent the activities of TORC2 with the absence and presence of SIK3, respectively. […] As is apparent from FIG. 7, the inhibiting activity of staurosporine (STS) on SIK3 was detected.

T1 sequence (Q9Y2K2 whole entry): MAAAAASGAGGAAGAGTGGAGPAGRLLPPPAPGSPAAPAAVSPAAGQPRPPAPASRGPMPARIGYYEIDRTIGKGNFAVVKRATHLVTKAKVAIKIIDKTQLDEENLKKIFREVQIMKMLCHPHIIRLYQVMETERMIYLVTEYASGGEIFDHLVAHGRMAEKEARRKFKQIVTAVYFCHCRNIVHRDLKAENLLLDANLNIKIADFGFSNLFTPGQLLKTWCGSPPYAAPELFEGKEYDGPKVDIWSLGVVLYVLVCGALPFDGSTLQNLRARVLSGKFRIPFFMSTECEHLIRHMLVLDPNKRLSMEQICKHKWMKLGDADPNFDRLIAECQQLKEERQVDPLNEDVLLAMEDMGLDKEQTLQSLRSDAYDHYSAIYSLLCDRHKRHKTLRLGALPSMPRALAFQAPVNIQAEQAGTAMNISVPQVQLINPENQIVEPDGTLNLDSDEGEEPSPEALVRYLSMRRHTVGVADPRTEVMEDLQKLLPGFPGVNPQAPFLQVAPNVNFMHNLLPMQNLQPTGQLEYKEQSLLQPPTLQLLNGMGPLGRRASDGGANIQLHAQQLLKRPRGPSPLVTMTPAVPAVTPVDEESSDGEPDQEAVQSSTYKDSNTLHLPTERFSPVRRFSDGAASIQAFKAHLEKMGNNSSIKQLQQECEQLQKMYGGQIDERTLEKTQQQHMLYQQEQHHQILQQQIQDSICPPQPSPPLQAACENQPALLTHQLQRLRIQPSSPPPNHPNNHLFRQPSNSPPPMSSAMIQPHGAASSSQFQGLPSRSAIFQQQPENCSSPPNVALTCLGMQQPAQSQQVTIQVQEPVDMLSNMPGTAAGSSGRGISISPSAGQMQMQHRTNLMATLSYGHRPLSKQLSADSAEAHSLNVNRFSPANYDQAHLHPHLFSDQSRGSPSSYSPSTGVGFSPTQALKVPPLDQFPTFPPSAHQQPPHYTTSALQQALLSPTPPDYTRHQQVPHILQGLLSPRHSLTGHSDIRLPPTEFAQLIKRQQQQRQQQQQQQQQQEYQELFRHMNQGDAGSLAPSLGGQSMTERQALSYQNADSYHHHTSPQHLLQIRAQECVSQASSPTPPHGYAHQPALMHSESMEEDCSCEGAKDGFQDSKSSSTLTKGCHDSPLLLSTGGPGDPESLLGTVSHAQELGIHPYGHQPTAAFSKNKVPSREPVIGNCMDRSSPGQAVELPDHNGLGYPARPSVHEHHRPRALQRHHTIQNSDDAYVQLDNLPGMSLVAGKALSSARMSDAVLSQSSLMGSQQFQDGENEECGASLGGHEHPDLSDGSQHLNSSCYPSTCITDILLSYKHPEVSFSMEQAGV

CN[C@@H]1C[C@H]2O[C@@](C)([C@@H]1OC)n1c3ccccc3c3c4c(c5c6ccccc6n2c5c31)C(=O)NC4 [staurosporine]
inhibiting activity on SIK3 (activity of TORC2 with absence vs presence of SIK3): detected
